Laboratory results: ChEMBL document CHEMBL1135854, “Absorption studies on aminoglycoside binding to the packaging region of human immunodeficiency virus type-1” (Bioorg Med Chem Lett, 2002)

Tested on: Human immunodeficiency virus 1
Assay: Binding to 176-mer RNA from the packaging region of HIV-1 (LAI) and value of binding constant K is determined
Assay type: functional

Row | SMILES | K
1 | NCC1OC(OC2C(CSCCNc3c4ccccc4nc4ccccc34)OC(OC3C(O)C(N)CC(N)C3OC3OC(CN)C(O)C(O)C3N)C2O)C(N)C(O)C1O (stereo not given) | 16000 M⁻¹
2 | NC[C@@H]1O[C@H](O[C@H]2[C@@H](O)[C@H](O[C@@H]3[C@@H](O)[C@H](N)C[C@H](N)[C@H]3O[C@H]3O[C@H](CO)[C@@H](O)[C@H](O)[C@H]3N)O[C@@H]2CO)[C@H](N)[C@@H](O)[C@@H]1O | 43000 M⁻¹
3 | N=C(N)NCC1OC(OC2C(CO)OC(OC3C(O)C(NC(=N)N)CC(NC(=N)N)C3OC3OC(CNC(=N)N)C(O)C(O)C3NC(=N)N)C2O)C(NC(=N)N)C(O)C1O (stereo not given) | 100000 M⁻¹
4 | NC[C@@H]1O[C@H](O[C@H]2[C@@H](O)[C@H](O[C@@H]3[C@@H](O)[C@H](N)C[C@H](N)[C@H]3O[C@H]3O[C@H](CN)[C@@H](O)[C@H](O)[C@H]3N)O[C@@H]2CO)[C@H](N)[C@@H](O)[C@@H]1O | 120000 M⁻¹
5 | NCC1O[C@H](O[C@H]2[C@@H](O)[C@H](O[C@H]3[C@H](O)[C@@H](N)C[C@@H](N)[C@@H]3O[C@H]3O[C@H](CN)[C@@H](O)[C@H](O)[C@H]3N)O[C@@H]2CSCCOCCSSCCOCCSC[C@H]2O[C@@H](O[C@H]3[C@H](O)[C@@H](N)C[C@@H](N)[C@@H]3O[C@H]3O[C@H](CN)[C@@H](O)[C@H](O)[C@H]3N)[C@H](O)[C@@H]2O[C@@H]2OC(CN)[C@H](O)[C@@H](O)[C@@H]2N)[C@H](N)[C@@H](O)[C@@H]1O (stereo not given in full) | 3800 M⁻¹
